# Measured values: patent US6452067B1, “Methods to assay for post-transcriptional suppression of gene expression” (DNA Plant Technology Corporation, priority 1997, dated 2002)
# Columns and labels:
# Assay type in all cases: cell-based
# [1] = system: 1345 tomato (an LE-ACS-2 suppressant) leaf explants; experiment: GUS assay of SSR pPO7110 in precultured leaf explants, 1345 tomato
# Procedure: (§1) Two 4 mm discs were cut from each leaf and placed into a solution of Agrobacteria harboring either the suppression-sensitive GUS reporter construct pPO7110 or a control, nonsuppression-sensitive GUS construct, such as pPO7113, that lacks LE-ACS-2 sequences but is identical in every other respect. The Agrobacteria were previously grown in minimal medium containing sucrose and tetracycline at 1 mg/l to an apparent optical density of about 0.2 at 550 nm. Cultures at densities ranging from 0.1-0.4 were used, but the final density was always adjusted to 0.2 at 550 nm using growth medium. Discs were incubated with the Agrobacteria for 0.5-1.5 minutes, then removed and placed on sterile filter paper that was placed on top of tomato cocultivation medium (MS salts with IAA @ 0.05 mg/l, zeatin @ 1 mg/l and 100 μM acetosyringone and 1% gelrite).
# (§2) The plates were incubated at 28° C. in the dark for 2.5 days whereupon the discs were removed and stained for GUS activity using 5-bromo-4-chloro-3-indolyl […] (X-Gluc). The discs were vacuum infiltrated for 2 minutes with the substrate solution containing 100 mM potassium phosphate pH 7.0, 10 mM EDTA, 2 mM potassium ferricyanide, 2 mM potassium ferrocyanide, 500 mg/1 X-Gluc, and 0.1% Triton X-100. Incubation was continued overnight (about 14-16 hr) at 37° C. and the plates were visually inspected for the presence of the insoluble blue precipitate a product of the GUS enzyme acting on the X-Gluc substrate. Tissues derived from nontransformed plants or transformed plants not displaying sense suppression will show the presence of a blue precipitate indicative of GUS activity while tissue derived from plants in the suppressed state will show no or comparatively little blue precipitate.
# (§3) Strawberry plants which were continuously cultured in axenic conditions in vitro are used as a source of leaf explants. No ethanol dip or other form of surface sterilization was done on the strawberry leaves. […] This preculture step was carried out under lights at 28° C. for 4 days.
# (§4) Three different concentrations of acetyosyringone were used in the preculture medium, 100 μM, 250 μM and 1000 μM.
# strawberry leaf explants = experiment: GUS assay in precultured leaf explants, strawberry
# Procedure: as §1, §2, §3, §4
# [2] = system: control tomato (line 91103, nontransformed control) leaf explants; experiment: GUS assay of SSR pPO7110 in precultured leaf explants, control tomato
# Procedure: as §1, §2, §3, §4
# [3] = 1 mg/l hormone in preculture/cocultivation medium, 0-10 scale
# [4] = vac 100AS (100 μM acetosyringone in preculture medium)
# [5] = vac 250AS (250 μM acetosyringone)
# [6] = vac 1000AS (1000 μM acetosyringone)
Compound,"GUS Assay Results, visual rating of GUS staining (mean in parentheses) [1, 3]","GUS Assay Results, visual rating of GUS staining (mean in parentheses) (strawberry leaf explants; [3])","GUS Assay Results, visual rating of GUS staining (mean in parentheses) [2, 3]","GUS Assay Results, visual rating of GUS staining (mean in parentheses) [1, 4]","GUS Assay Results, visual rating of GUS staining (mean in parentheses) [1, 5]","GUS Assay Results, visual rating of GUS staining (mean in parentheses) [1, 6]","GUS Assay Results, visual rating of GUS staining (mean in parentheses) (strawberry leaf explants; [4])","GUS Assay Results, visual rating of GUS staining (mean in parentheses) (strawberry leaf explants; [5])","GUS Assay Results, visual rating of GUS staining (mean in parentheses) (strawberry leaf explants; [6])","GUS Assay Results, visual rating of GUS staining (mean in parentheses) [2, 4]","GUS Assay Results, visual rating of GUS staining (mean in parentheses) [2, 5]","GUS Assay Results, visual rating of GUS staining (mean in parentheses) [2, 6]","GUS Assay Results, visual rating of GUS staining (mean in parentheses) ([1]; 3 mg/l NAA)","GUS Assay Results, visual rating of GUS staining (mean in parentheses) (strawberry leaf explants; 3 mg/l NAA)","GUS Assay Results, visual rating of GUS staining (mean in parentheses) ([2]; 3 mg/l NAA)"
"O=C(O)COc1ccc(Cl)cc1Cl [2,4-D]","2,2,3 (2.3)","0,0,0,0 (0)","3,4,7,8 (5.5)",–,–,–,–,–,–,–,–,–,–,–,–
"COc1cc(C(C)=O)cc(OC)c1O [AS, acetosyringone]",–,–,–,"0,0,0,0 (0)","0,0,0,0 (0)","0,0,0,0 (0)","0,0,0,0 (0)","0,0,0,0 (0)","0,0,0,0 (0)","0,0,0,0 (0)","0,0,0,0 (0)","0,0,1,2 (0.8)",–,–,–
O=C(O)Cc1c[nH]c2ccccc12 [IAA],"0,4,4,6 (4.7)","0,0,0,0 (0)","5,8,9,9 (7.8)",–,–,–,–,–,–,–,–,–,–,–,–
O=C(O)Cc1cccc2ccccc12 [NAA],"0,0,0,1 (0.3)","0,0,0,0 (0)","0,1,3,3 (1.8)",–,–,–,–,–,–,–,–,–,"0,1,2,4 (1.8)","0,0,0,1 (0.3)","3,6,6,6 (5.25)"
